This note sets out measurements from patent US8383814B2, “Substituted tetrahydropyran spiro pyrrolidinone and piperidinone, preparation and therapeutic use thereof” (Sanofi, priority 2008, dated 2013).

The target of assay [1] is T1, rhesus (Macacca Mulatta) H3 receptor (Macaca mulatta, UniProt Q865E1).
T1 construct: pcDNA5/FRT/TO (Invitrogen) containing the rhesus monkey (Macacca Mulatta) 445 amino acid H3 receptor
As to the kind of experiment: Rhesus H3 radioligand binding assay ([3H]-methylhistamine displacement, WGA SPA beads). Further details: species or system rhesus monkey (Macacca Mulatta). Particulars: [3H]-methylhistamine 2 nM; membranes of Flp-In T-REx 293 cells expressing rhesus H3; Cheng-Prusoff. How it is done:
(§1) Rhesus H3 membranes were prepared from the Flp-In T-REx 293 Cell Line (Invitrogen) stably transfected with pcDNA5/FRT/TO (Invitrogen) containing the rhesus monkey (Macacca Mulatta) 445 amino acid H3 receptor. (Genbank #AY231164). Stably transfected cultures were amplified in tissue culture flasks by standard tissue culture methods and induced to express rhesus H3 by exposure to 500 ng/ml tetracycline (Cellgro) for 24 hours. After induction, cells were dissociated from flasks utilizing Cell Stripper (Cellgro). Cells were centrifuged (1K×g, 5 min) and pellet frozen in an ethanol-dry ice bath to disrupt cell membranes. Frozen cell pellet was re-suspended in 5 mM HEPES (pH 7.4, Invitrogen) at 10 ml/1000 cm2 of harvested cells. The cell suspension was drawn through an 18 gauge needle (2-3×) followed by a 23 gauge needle (2-3×) to further disrupt cell membranes. The cell suspension was centrifuged (40K×g, 30 min). Cell membrane pellet was re-suspended in 5 mM HEPES (pH 7.4, Invitrogen) at a final protein concentration of 10 mg/ml. Rhesus H3 membranes were stored under liquid nitrogen prior to use in [3H]-Methylhistamine and GTP S radioligand binding assays.
Rhesus H3 radioligand binding assay was performed using rhesus H3 receptor membranes (prepared as described above), [3H]-Methylhistamine (Perkin Elmer) and WGA SPA beads (wheat germ agglutinin scintillation proximity assay) beads (Amersham). The assay was performed in 96-well Opti-Plates (Packard). Each reaction contained 50 μl rhesus H3 membranes (20-30 μg total protein), 50 μl WGA SPA beads (0.1 μg) and 50 μl of 83 Ci/mmol [^3H]-Methylhistamine (final concentration 2 nM) and 50 μl of tested compound. The compounds of this invention and/or vehicle were diluted with binding buffer from 10 mM DMSO stocks. Assay plates were sealed with TopSeal (Perkin Elmer) and mixed on shaker (25° C., 1 hour). Assay plates were read on TopCount scintillation counter (Packard). Results were analyzed by Hill transformation and Ki values were determined by Cheng-Prusoff equation.

A further assay has as its system rhesus H3 receptor. As to the kind of experiment: GTPγS radioligand binding assay: inhibition of rhesus H3 constitutive functional activity in cell membranes (inverse agonism). It is filed as biochemical, rhesus monkey (Macacca Mulatta). Further details: concentration or dose not given beside the values. The following applies: negative value = below basal level. Here is the method:
as §1

T1 sequence (Q865E1 1-445): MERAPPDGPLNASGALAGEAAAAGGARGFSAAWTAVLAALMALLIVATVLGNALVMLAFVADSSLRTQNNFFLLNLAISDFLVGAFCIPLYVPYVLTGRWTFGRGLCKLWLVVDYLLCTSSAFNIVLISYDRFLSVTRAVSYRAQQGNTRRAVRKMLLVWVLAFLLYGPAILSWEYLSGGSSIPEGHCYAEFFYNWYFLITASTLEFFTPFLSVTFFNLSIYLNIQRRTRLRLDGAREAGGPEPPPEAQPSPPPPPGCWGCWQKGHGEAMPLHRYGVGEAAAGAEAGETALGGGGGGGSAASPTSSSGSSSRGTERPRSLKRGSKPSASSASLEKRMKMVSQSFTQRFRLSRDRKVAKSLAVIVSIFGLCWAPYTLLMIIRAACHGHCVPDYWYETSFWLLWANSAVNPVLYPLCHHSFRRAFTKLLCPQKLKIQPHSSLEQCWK

The Ki is a measure of affinity in units of concentration, obtained from inhibition or displacement. Turning to `C[C@H]1CCCN1C1CCN(c2ccc(N3CCC4(CCOCC4)C3=O)c(C(F)(F)F)c2)CC1` [Example 21, 2-{4-[4-((2S,3′S)-2-Methyl-pyrrolidin-1-yl)-piperidin-1-yl]-2-trifluoromethyl-phenyl}-8-oxa-2-aza-spiro[4.5]decan-1-one], the affinity in assay [1] corresponds to a Ki of 0.42 nM. Also, in the assay with rhesus H3 receptor, the “Inverse Agonism: % inhibition of Basal GTPγS binding in Rhesus H3” value (shortened to “Inverse Agonism: % inhibition”) is reported as −19%.

For the molecule `C[C@H]1CCCN1[C@H]1CCN(c2ccc(N3CCC4(CCOCC4)C3=O)c(C(F)(F)F)c2)C1` [Example 22, 2-[4-((2S,3′S)-2-Methyl-[1,3′]bipyrrolidinyl-1′-yl)-2-trifluoromethyl-phenyl]-8-oxa-2-aza-spiro[4.5]decan-1-one], in assay [1], the inhibition constant Ki was 8.6 nM. Besides, the “Inverse Agonism: % inhibition” value in the assay with rhesus H3 receptor was −21%.

In the case of `C[C@H]1CCCCN1C1CCN(c2ccc(N3CCC4(CCOCC4)C3=O)c(C(F)(F)F)c2)CC1` [Example 23, 2-[4-((2S,3′S)-2-Methyl-[1,4]bipiperidinyl-1′-yl)-2-trifluoromethyl-phenyl]-8-oxa-2-aza-spiro[4.5]decan-1-one], the affinity in assay [1] corresponds to a Ki of 1.5 nM. In addition, in the assay with rhesus H3 receptor, the “Inverse Agonism: % inhibition” value is recorded as −29%.

In turn, `CCCC1CCCN1C1CCN(c2ccc(N3CCC4(CCOCC4)C3=O)c(CC)c2)CC1` (centres unmarked) [Example 24, 2-{2-Ethyl-4-[4-(2-propyl-pyrrolidin-1-yl)-piperidin-1-yl]-phenyl}-8-oxa-2-aza-spiro[4.5]decan-1-one] showed an inhibition constant (Ki) in assay [1] of 18 nM. In addition, the “Inverse Agonism: % inhibition” value in the assay with rhesus H3 receptor is −18%.

Take `CCc1cc(N2CCC(N3CCCC3COC)CC2)ccc1N1CCC2(CCOCC2)C1=O` (centres unmarked) [Example 25, 2-{2-Ethyl-4-[4-(2-methoxymethyl-pyrrolidin-1-yl)piperidin-1-yl]-phenyl}-8-oxa-2-aza-spiro[4.5]decan-1-one]: in assay [1], the Ki was determined as 4.9 nM. Further, the “Inverse Agonism: % inhibition” value in the assay on rhesus H3 receptor is on record as −13%.

For the molecule `C[C@H]1CCCN1[C@H]1CCN(c2ccc(N3CCCC4(CCOCC4)C3=O)c(F)c2)C1` [Example 27, 2-[2-Fluoro-4-((2S,3′S)-2-methyl-[1,3′]bipyrrolidinyl-1′-yl)-phenyl]-9-oxa-2-aza-spiro[5.5]undecan-1-one], the inhibitory constant (Ki) in assay [1] worked out at 0.7 nM. The “Inverse Agonism: % inhibition” value in the assay with rhesus H3 receptor is on record as −20%.

On to `Cc1cc(N2CC[C@H](N3CCC[C@H]3C)C2)ccc1N1CCCC2(CCOCC2)C1=O` [Example 28, 2-[2-Methyl-4-((2R,3′S)-2-methyl-[1,3′]bipyrrolidinyl-1′-yl)-phenyl]-9-oxa-2-aza-spiro[5.5]undecan-1-one], for which, in assay [1], the Ki amounted to 13 nM. For the same molecule, in the assay on rhesus H3 receptor, the “Inverse Agonism: % inhibition” value is given as −13%.

With `Cc1cc(N2CC[C@@H](N3CCC[C@H]3C)C2)ccc1N1CCC2(CCOCC2)C1=O` [Example 29, 2-[2-Methyl-4-((2R,3′R)-2-methyl-[1,3′]bipyrrolidinyl-1′-yl)-phenyl]-8-oxa-2-aza-spiro[4.5]decan-1-one], the Ki in assay [1] came out at 28 nM. Further, the “Inverse Agonism: % inhibition” value in the assay on rhesus H3 receptor is given as −28%.

Molecule `Cc1cc(N2CC[C@@H](N3CCC[C@@H]3C)C2)ccc1N1CCC2(CCOCC2)C1=O` [Example 30] showed a Ki in assay [1] of 4.3 nM. Further, the “Inverse Agonism: % inhibition” value in the assay with rhesus H3 receptor is −29%.

Turning to `Cc1cc(N2CCC(N3CCCC3C)C2)ccc1N1CCC2(CCOCC2)C1=O` (centres unmarked) [Example 31, 2-[2-Methyl-4-(2-methyl-[1,3′]bipyrrolidinyl-1′-yl)-phenyl]-8-oxa-2-aza-spiro[4.5]decan-1-one], the affinity in assay [1], expressed as Ki, was 6.2 nM. Besides, the “Inverse Agonism: % inhibition” value in the assay with rhesus H3 receptor is recorded as −28%.

As for `Cc1cc(N2CC[C@@H](N3CCC[C@H]3C)C2)ccc1N1CCCC2(CCOCC2)C1=O` [Example 32, 2-[2-Methyl-4-((2R,3′R)-2-methyl-[1,3′]bipyrrolidinyl-1′-yl)-phenyl]-9-oxa-2-aza-spiro[5.5]undecan-1-one], the inhibition constant (Ki) in assay [1] was 11 nM. Further, the “Inverse Agonism: % inhibition” value in the assay with rhesus H3 receptor is −15%.

Regarding `Cc1cc(N2CC[C@@H](N3CCC[C@@H]3C)C2)ccc1N1CCCC2(CCOCC2)C1=O` [Example 33], the Ki in assay [1] was 1.4 nM. In the assay on rhesus H3 receptor, the “Inverse Agonism: % inhibition” value was −19%.

In assay [1], `C[C@@H]1CCCN1[C@H]1CCN(c2ccc(N3CCCC4(CCOCC4)C3=O)cc2)C1` [Example 34, 2-[4-((2R,3′S)-2-Methyl-[1,3′]bipyrrolidinyl-1′-yl)-phenyl]-9-oxa-2-aza-spiro[5.5]undecan-1-one] gave an inhibition constant Ki of 1.7 nM. The “Inverse Agonism: % inhibition” value in the assay with rhesus H3 receptor is listed as −12%.

Consider `C[C@@H]1CCCN1[C@@H]1CCN(c2ccc(N3CCCC4(CCOCC4)C3=O)cc2)C1` [Example 35, 2-[4-((2R,3′R)-2-Methyl-[1,3′]bipyrrolidinyl-1′-yl)-phenyl]-9-oxa-2-aza-spiro[5.5]undecan-1-one], for which the Ki in assay [1] amounted to 0.7 nM. In the assay with rhesus H3 receptor, the “Inverse Agonism: % inhibition” value is reported as −13%.

Regarding `C[C@H]1CCCN1[C@@H]1CCN(c2ccc(N3CCCC4(CCOCC4)C3=O)cc2)C1` [Example 36, 2-[4-((2S,3′R)-2-Methyl-[1,3′]bipyrrolidinyl-1′-yl)-phenyl]-9-oxa-2-aza-spiro[5.5]undecan-1-one], the Ki in assay [1] was 0.26 nM. Further, in the assay on rhesus H3 receptor, the “Inverse Agonism: % inhibition” value is −10%.

Consider `C[C@H]1CCCN1[C@H]1CCN(c2ccc(N3CCCC4(CCOCC4)C3=O)cc2)C1` [Example 37, 2-[4-((2S,3′S)-2-Methyl-[1,3′]bipyrrolidinyl-1′-yl)-phenyl]-9-oxa-2-aza-spiro[5.5]undecan-1-one], for which the inhibitory constant (Ki) in assay [1] turned out to be 0.1 nM. Moreover, in the assay with rhesus H3 receptor, the “Inverse Agonism: % inhibition” value is recorded as −20%.

In turn, `C[C@@H]1CCCN1[C@H]1CCN(c2ccc(N3CCCC4(CCOCC4)C3=O)c(F)c2)C1` [Example 38, 2-[2-Fluoro-4-((2R,3′S)-2-Methyl-[1,3′]bipyrrolidinyl-1′-yl)-phenyl]-9-oxa-2-aza-spiro[5.5]undecan-1-one] yielded an inhibitory constant (Ki) in assay [1] of 1.3 nM. Also, in the assay on rhesus H3 receptor, the “Inverse Agonism: % inhibition” value is −22%.

The molecule `C[C@@H]1CCCN1[C@@H]1CCN(c2ccc(N3CCCC4(CCOCC4)C3=O)c(F)c2)C1` [Example 39, 2-[2-Fluoro-4-((2R,3′R)-2-Methyl-[1,3′]bipyrrolidinyl-1′-yl)-phenyl]-9-oxa-2-aza-spiro[5.5]undecan-1-one] had an inhibitory constant (Ki) in assay [1] of 0.75 nM. The “Inverse Agonism: % inhibition” value with rhesus H3 receptor is −13%.

`C[C@H]1CCCN1[C@@H]1CCN(c2ccc(N3CCCC4(CCOCC4)C3=O)c(F)c2)C1` [Example 40, 2-[2-Fluoro-4-((2S,3′R)-2-Methyl-[1,3′]bipyrrolidinyl-1′-yl)-phenyl]-9-oxa-2-aza-spiro[5.5]undecan-1-one] yielded a Ki in assay [1] of 0.09 nM. Also, the “Inverse Agonism: % inhibition” value in the assay with rhesus H3 receptor is −18%.
